Measurements from PubChem BioAssay (NCI).
Values joined by “and” are separate entries in the source; they are usually repeats but may differ in a detail not shown here. Equal entries are not always repeated.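 Step 1: Grow cells in 96-well plates. Step 2: Expose to compound for 48 hours at 5 concentrations. Step 3: Interpolate endpoints linearly; if unreached, use highest concentration. Abbreviation: GI50, concentration required for 50% inhibition of growth. At the TGI there is no net growth.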

How the values were obtained:
Assay in all cases: NCI tumour cell line growth inhibition, 48 h
[1] = test system: DLD-1 colon
[2] = test system: DMS 273 small cell lung
[3] = test system: HOP-18 NSCLC
[4] = test system: LXFL 529 NSCLC
[5] = test system: M19-MEL melanoma
[6] = test system: XF 498 CNS
[7] = test system: RXF-631 renal
[8] = test system: MDA-N
[9] = test system: P388 leukemia
[10] = test system: P388/ADR leukemia
[11] = test system: SN12K1 renal

| Structure (SMILES) | TGI [1] | TGI [2] | TGI [3] | TGI [4] | TGI [5] | TGI [6] | TGI [8] | also measured |
| --- | --- | --- | --- | --- | --- | --- | --- | --- |
| CCOC(=O)CC1=NC(=Nc2cc(Cl)ccc2Cl)SC1 | > 100 µM | > 100 µM | > 100 µM | > 100 µM | > 100 µM | > 100 µM | – | – |
| CCOC(=O)C1=C(NC(C)(C)C)OCC1=O | > 100 µM | – | – | > 100 µM | – | > 100 µM | – | TGI [7]: > 100 µM |
| COc1ccc(CCNCc2cccc(OC)c2OC)cc1OC | > 100 µM | > 100 µM | – | > 100 µM | > 100 µM | > 100 µM | – | TGI [7]: > 100 µM |
| COc1cccc2c1cc([N+](=O)[O-])c1c(C(=O)O)cc3c(c12)OCO3 | – | – | – | – | – | – | > 100 µM | – |
| O=C(N/C(=C\c1ccc(Br)cc1)c1nc2ccccc2s1)c1ccccc1 | > 100 µM | > 100 µM | > 100 µM | > 100 µM | > 100 µM | > 100 µM | – | TGI [7]: > 100 µM |
| O=C(O)C(Br)C(Br)c1ccccc1[N+](=O)[O-] (centres undefined) | – | – | – | – | – | – | > 100 µM | – |
| COC(=O)C1=C(c2cc(OC)c(OC)c(OC)c2)OC(c2cc(OC)c(OC)c(OC)c2)C1COC(C)=O (centres undefined) | > 100 µM | > 100 µM | – | > 100 µM | > 100 µM | > 100 µM | – | TGI [7]: 45.1 µM |
| O=C1OC(c2ccccc2)=N/C1=C\c1c(O)cc(O)cc1O | – | > 100 µM | > 100 µM | > 100 µM | > 100 µM | – | – | – |
| O=C(O)c1ccc(N=Nc2cc(S(=O)(=O)O)c3cccnc3c2O)cc1 | > 100 µM | > 100 µM | – | – | > 100 µM | > 100 µM | – | – |
| CCc1ccccc1-n1c2nc(=O)n(C)c(=O)c-2nc2ccccc21 | 45.2 µM | 22.1 µM | 25 µM | 24.8 µM | 3.69 µM | 22 µM | – | – |
| CC(=O)OCC(OC(C)=O)C(OC(C)=O)C(OC(C)=O)C(=O)CNn1c(-c2ccccc2)nc2ccc(Br)cc2c1=O (centres undefined) | – | > 100 µM | – | > 100 µM | > 100 µM | > 100 µM | – | – |
| C[C@H]1COC2(c3ccccc3)CCC(=O)N12 (some centres undefined) | > 100 µM | > 100 µM | > 100 µM | – | > 100 µM | > 100 µM | – | – |
| O=C1NC(=O)C2(CCC(O)C2)c2cc[n+]([O-])cc21 (centres undefined) | – | – | – | – | – | – | > 100 µM | – |
| CC(C)CC(CNC(Cc1ccc(Cl)cc1)C(N)=O)NC(=O)C(Cc1cnc[nH]1)NC(=O)CNC(=O)C(NC(=O)C(C)NC(=O)C(Cc1c[nH]c2ccccc12)NC(=O)C(CCC(=O)O)NC(=O)C(N)Cc1ccccc1)C(C)C (centres undefined) | > 133 µM | > 133 µM | – | > 133 µM | > 133 µM | > 133 µM | – | TGI [7]: > 133 µM |
| CC1CCC2C(C)C3C(CC4C5CC=C6CC(OC7OC(CO)C(O)C(OC8OC(CO)C(O)C(O)C8O)C7OC7OC(C)C(O)C(O)C7O)CCC6(C)C5CCC43C)N2C1 (centres undefined) | – | – | – | – | – | – | 23.7 µM and > 2.5 µg/mL | GI50 [8]: > 2.5 µg/mL |
| CCCCSCc1nc2nc(Cl)c(Cl)nc2[nH]1 | – | – | – | – | – | – | 65.9 µM | – |
| CN(/N=C/c1ccnc2ccccc12)c1ccc([N+](=O)[O-])cc1[N+](=O)[O-] | > 100 µM | > 100 µM | > 100 µM | > 100 µM | > 100 µM | > 100 µM | – | – |
| CC[C@@H](C)[C@H]([C@H](CC(=O)N1CCC[C@@H]1[C@@H](OC)[C@H](C)C(=O)N[C@H](Cc1ccccc1)c1nccs1)OC)N(C)C(=O)[C@H](NC(=O)[C@@H](C(C)C)N(C)C)C(C)C | – | – | – | – | – | – | – | GI50 [5]: 0.425 nM; TGI [9]: 0.581 µM; TGI [10]: 0.000573 µM; TGI [7]: 0.00731 µM |
| O=C(CCC(=O)N/N=C/c1ccccc1O)N/N=C/c1ccccc1O | – | > 100 µM | – | > 100 µM | > 100 µM | – | – | – |

| Structure (SMILES) | TGI [1] | TGI [2] | TGI [3] | TGI [4] | TGI [5] | TGI [6] | TGI [8] | also measured |
| --- | --- | --- | --- | --- | --- | --- | --- | --- |
| COc1ccc(/C(Cl)=C(\C=O)c2ccc(OC)c(OC)c2)cc1OC | > 100 µM | > 100 µM | > 100 µM | – | > 100 µM | > 100 µM | > 100 µM | TGI [9]: > 100 µM; TGI [10]: > 85.8 µM; TGI [11]: > 0.1 mM |
| COc1ccc(/C(Cl)=C(\C=O)c2ccc(Br)cc2)cc1OC | > 100 µM | > 100 µM | > 100 µM | > 100 µM | > 100 µM | 39.8 µM | – | TGI [7]: > 100 µM |
| COc1cc(OC)c(OC)cc1/C=C1\C=Cc2ccccc21 | – | – | – | – | – | – | 58.2 µM | – |
| c1ccc2cc(OCC3CO3)c(OCC3CO3)cc2c1 (centres undefined) | – | – | – | – | – | – | 22.9 µM | – |
| O=C(CCc1ccccc1)On1nnc2ccccc2c1=O | > 100 µM | > 100 µM | – | > 100 µM | > 100 µM | – | – | – |
| O=C(O)c1ccc(S(=O)(=O)N=Nc2c(O)[nH]c3ccccc23)cc1 | – | – | – | – | – | – | > 100 µM | – |
| CC1CCCN(CC(O)CN2CCCc3ccccc32)C1 (centres undefined) | – | – | – | – | – | – | > 100 µM | – |
| Cc1[nH]c(=O)nc(CC(O)(c2ccccc2)c2ccccc2)c1-c1ccccc1 | > 100 µM | > 100 µM | > 100 µM | > 100 µM | > 100 µM | – | – | TGI [7]: > 100 µM |
| NS(=O)(=O)c1ccc(NC(=O)CC(=O)Nc2ccc(S(N)(=O)=O)cc2)cc1 | > 100 µM | > 100 µM | > 100 µM | > 100 µM | > 100 µM | – | – | – |
| COc1ccc2[nH]c(-c3cccc(N(C)C)c3)cc(=O)c2c1 | – | – | – | – | – | – | 0.156 µM | – |
| O=C(CCCNC(=O)OCc1ccccc1)OCc1ccc2c(c1)C(=O)c1ccccc1C2=O | > 100 µM | > 100 µM | – | > 100 µM | – | – | – | TGI [7]: > 100 µM |
| CCc1ccc(/C(C)=N/NC(N)=S)cc1 | – | – | > 100 µM | – | > 100 µM | 82.6 µM | – | – |
| O=C(N=Nc1c(O)[nH]c2c(Cl)cc(Cl)cc12)c1ccncc1 | – | – | – | – | – | – | 29.1 µM | – |
| COc1ccc(/C=C/c2nc(=S)[nH][nH]2)cc1 | > 100 µM | > 100 µM | – | > 100 µM | > 100 µM | > 100 µM | – | TGI [7]: > 100 µM |
| N#CCC(=O)N/N=C1/C(=O)NC(=O)C(=O)C1c1nc2ccccc2s1 (centres undefined) | > 100 µM | > 100 µM | > 100 µM | > 100 µM | > 100 µM | – | – | TGI [7]: > 100 µM |
| CC(=O)NCCCCCCNC(C)=O | > 10000 µM | 7250 µM | > 10000 µM | – | > 10000 µM | 8380 µM | > 10000 µM | TGI [9]: > 10000 µM; TGI [10]: > 10000 µM; TGI [11]: > 10 mM |
| CN(C)c1nc(N(C)C)n2nc(-c3ccccc3[N+](=O)[O-])nc2n1 | > 100 µM | > 100 µM | > 100 µM | > 100 µM | > 100 µM | > 100 µM | – | – |
| C=C1C(=O)O[C@H]2[C@H]1[C@H](OC(=O)/C(C)=C\C)C[C@]1(CO1)[C@@H]1[C@H](OC(C)=O)C=C(C)[C@]21O | – | – | – | – | – | – | 34.8 µM | – |
